Like-named read-outs stand apart in the source and are kept apart here.
Assays:
K422 = test: Cell viability, 7 days compound treatment (Cell Titer-Glo), K422; assay type: cell-based; conditions: Homo sapiens, 168 h; K422, 7 days; read-out: IC50 of antiproliferation
Experimental: Fifteen thousand cells were seeded in 100 μl of media per well of a U-bottom 96-well plate and treated with digitally dispensed drugs (Tecan D300e) for the indicated times and doses. After 96 hours, plates were centrifuged for 750 rpm for 3 minutes, and old media was exchanged for 100 μl of fresh media. Drug treatment was then repeated at the indicated doses. 72 hours following media change, cells were transferred to 96 well flat-bottom opaque plates. Viability was measured by adding 25 μL Cell Titer-Glo reagent (Promega G7570) to each well and luminescence was measured (BMG Labtech Pherastar FS). The background luminescence was subtracted, and the signal was normalized to DMSO-treated cells. IC50 measurements on cell lines were calculated using at least three biological replicates by separate cell passages. Fit of dose–response curves to data and statistical analysis was performed using GraphPad PRISM using the four-parameter log(inhibitor) vs response function.

BCL6^BTB = target: T1, BCL6^BTB (Homo sapiens, UniProt P41182+Q09472, C67R/C84N/C8Q); test: Isothermal calorimetry, BCL6BTB titrations; assay type: binding; conditions: ITC; for Kd: 25 °C
T1 construct: human BCL6 (residues 5–129; Uniprot: P41182); Trx (N, cleaved yes); 6xHis (N, cleaved yes); made in house; host or cells: bacteria (pET-48b(+) vector)
Experimental: (§1) 12 hours prior to performing ITC, frozen stocks of 6xHis-p300^BD and BCL6^BTB were dialyzed for two hours in ITC buffer at 4°C (50 mM HEPES pH 7.4, 100 μM TCEP, 150 mM NaCl), followed by dialysis in fresh ITC buffer overnight at 4°C to remove glycerol and equalize protein mixtures. Samples were centrifuged at 10,000g for 10 min to remove any precipitate. In all titrations, DMSO was added to protein mixtures to match the DMSO concentration of ligand dissolved in ITC buffer. For binary assays with TCIP3, dialyzed 6xHis-p300^BD or BCL6^BTB were titrated from the syringe into a cell containing TCIP3 dissolved in ITC buffer. For p300 titrations, 50 μM or 25 μM protein was titrated into 5 μM or 2.5 μM, respectively, of TCIP3. For BCL6 titrations, 70 μM or 40 μM protein was titrated into 7 μM or 5 μM, respectively, of TCIP3. For ternary titrations, 20× 6xHis-p300^BD was incubated with 1x TCIP3 in the cell to drive saturation of the binary complex, followed by a titration of 10x BCL6^BTB from the syringe, at 310 rpm stirring at 25°C. The following concentrations were used in each run: 15 μM BCL6^BTB, 30 μM p300, and 1.5 μM TCIP3; 18 μM BCL6 ^BTB, 36 μM 6xHis-p300^BD, and 1.8 μM TCIP3; or 10 μM BCL6 ^BTB, 20 μM 6xHis-p300^BD, and 1 μM TCIP3. Alternatively, 20x BCL6^BTB was incubated with 1x TCIP3 in the cell to drive saturation of the binary complex, followed by a titration of 10× 6xHis-p300^BD from the syringe, at 310 rpm stirring at 25°C. The following concentrations were used in each run: 30 μM BCL6, 15 μM 6xHis-p300^BD, and 1.5 μM TCIP3; 20 μM BCL6 ^BTB, 10 μM 6xHis-p300^BD, and 1 μM TCIP3; or 40 μM BCL6 ^BTB, 20 μM 6xHis-p300^BD, and 2 μM TCIP3. The first one or two injections and outliers from instrument noise were routinely excluded. Data were fit to a one-site model using MicroCal LLC Origin software. The following injection parameters were used for each run: (Total injection number: 35; Cell temp: 25 °C; Ref power: 10; Initial delay: 250 s; stirring speed: 310; Feedback mode: High; volume: 8 μL; Duration: 13.7 s; Filter period: 2; initial injection volume: 2 μL).

p300^BD = target: T2, p300^BD (Homo sapiens, UniProt Q09472); test: Isothermal calorimetry, p300BD titrations; assay type: binding; conditions: ITC; for Kd: 25 °C
T2 sequence (Q09472 1049-1156 limits assumed): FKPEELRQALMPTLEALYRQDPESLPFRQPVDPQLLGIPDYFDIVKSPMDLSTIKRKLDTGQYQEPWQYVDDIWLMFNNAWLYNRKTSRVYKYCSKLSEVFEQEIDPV
Experimental: as §1

Kd (BCL6^BTB; BCL6BTB titrated into TCIP3, read-out: Kd, binary BCL6:TCIP3): 265 nM
Kd (BCL6^BTB; BCL6BTB titrated into p300BD-saturated TCIP3, read-out: Kd, BCL6 into p300:TCIP3 (ternary)): 19.8 nM
α BCL6 into p300:TCIP3 (BCL6^BTB; α = Kd binary/Kd ternary): 13
Kd (p300^BD; p300BD titrated into BCL6BTB-saturated TCIP3, read-out: Kd, p300 into BCL6:TCIP3 (ternary)): 2.37 nM
Kd (p300^BD; p300BD titrated into TCIP3, read-out: Kd, binary p300:TCIP3): 8.28 nM
α p300 into BCL6:TCIP3 (p300^BD; α = Kd binary/Kd ternary): 3.5
SMILES: CNC(=O)COc1cc2cc(Nc3nc(N4CCC(C(=O)N5CCN(CCC(=O)N6CCC(n7nc(N8CCCc9cc(-c%10cnn(C)c%10)c(C(F)F)cc98)c8c7CCN(C(=O)NC)C8)CC6)CC5)CC4)ncc3Cl)cc(OC)c2n(C)c1=O [TCIP3]
IC50 (K422): 4 nM

From paper doi:10.1101/2025.03.14.643404, “A Bivalent Molecular Glue Linking Lysine Acetyltransferases to Oncogene-induced Cell Death” (bioRxiv, 2025)
